Test results published in ChEMBL document CHEMBL1125127 (J Med Chem, 1990).
Each block holds one compound with its values, some of them ahead of it.

How the values were obtained:
[1] = test system: Canis familiaris; test: Percent change in FRP from control at active dose 30 mg/kg administered intraperitoneally in anesthetized dogs; format: functional, Canis lupus familiaris; conditions: route intraperitoneal
[2] = test system: Canis familiaris; test: Percent change in blood pressure (BP) from control at active dose 30 mg/kg administered intraperitoneally in anesthetized dogs; format: functional, Canis lupus familiaris; conditions: route intraperitoneal
[3] = Ratio of number of active animals to number of treated at dose 30 mg/kg administered intraperitoneally in anesthetized dogs; No of animals tested=4; conditions: route intraperitoneal
[4] = molecular target: Beta adrenergic receptor (Canis familiaris)
[5] = test system: Canis familiaris; test: Percent change in heart rate (HR) from control at active dose 30 mg/kg administered intraduodenally; conditions: route intraduodenal
[6] = test system: Canis familiaris; test: Concentration that causes a 20% increase in APD95 (action potential duration at 95% repolarization) from control value in anesthetized dogs; format: functional, Canis lupus familiaris
[7] = test system: Canis familiaris; test: Concentration at which maximum change in […] was observed from control value in anesthetized dogs; The maximum observed change APD95 from control value and concentration at 1 uM when this occurred; format: functional, Canis lupus familiaris
[8] = molecular target: T1, Beta-2 adrenergic receptor (Canis lupus familiaris, UniProt P54833)
T1 sequence (P54833 whole entry): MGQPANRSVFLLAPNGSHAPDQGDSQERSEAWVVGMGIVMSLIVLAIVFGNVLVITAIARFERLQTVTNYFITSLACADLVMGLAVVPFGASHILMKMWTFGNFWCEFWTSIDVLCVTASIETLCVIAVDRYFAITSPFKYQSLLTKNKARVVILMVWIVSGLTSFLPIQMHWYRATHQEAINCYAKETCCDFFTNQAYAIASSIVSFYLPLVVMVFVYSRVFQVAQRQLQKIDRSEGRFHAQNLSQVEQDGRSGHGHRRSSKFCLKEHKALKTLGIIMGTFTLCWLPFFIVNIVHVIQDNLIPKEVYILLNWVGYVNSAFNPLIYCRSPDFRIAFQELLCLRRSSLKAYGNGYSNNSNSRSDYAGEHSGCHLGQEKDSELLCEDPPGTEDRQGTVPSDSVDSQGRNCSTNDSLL
Description: Tested for Beta-2 adrenergic receptor selectivity in canine lung tissue in anesthetized dogs

[9] = molecular target: Beta-1 adrenergic receptor (Canis familiaris)
[10] = test system: Canis familiaris; test: Maximum change in […] from control value in anesthetized dogs; 10 uM.; format: functional, Canis lupus familiaris
[11] = Ratio of number of active animals to number of treated animals; No of animals tested=2; format: functional
[12] = Ratio of number of active animals to number of treated at dose 30 mg/kg administered intraperitoneally in anesthetized dogs; No of animals tested=2; format: functional; conditions: route intraperitoneal
[13] = test system: Canis familiaris; test: Percent change in heart rate (HR) from control at active dose 10-30 mg/kg administered intraduodenally
[14] = Ratio of number of active animals to number of treated at dose 10-30 mg/kg administered intraperitoneally in anesthetized dogs; No of animals tested=2; format: functional
[15] = test system: Canis familiaris; test: Percent change in blood pressure (BP) from control at active dose 10-30 mg/kg administered intraperitoneally in anesthetized dogs; format: functional, Canis lupus familiaris
[16] = test system: Canis familiaris; test: Percent change in FRP from control at active dose 10-30 mg/kg administered intraperitoneally in anesthetized dogs; format: functional, Canis lupus familiaris
[17] = Ratio of number of active animals to number of treated at dose 10-30 mg/kg administered intraperitoneally in anesthetized dogs; No of animals tested=3; format: functional
[18] = test system: Canis familiaris; test: Concentration at which maximum change in […] was observed from control value in anesthetized dogs; The maximum observed change APD95 from control value and concentration at 30 uM when this occurred; format: functional, Canis lupus familiaris
[19] = test system: Canis familiaris; test: Concentration at which maximum change in […] was observed from control value in anesthetized dogs; The maximum observed change APD95 from control value and concentration at 100 uM when this occurred; format: functional, Canis lupus familiaris
[20] = test system: Canis familiaris; test: Percent change in FRP from control at active dose 1.0-10 mg/kg administered intraperitoneally; format: functional, Canis lupus familiaris
[21] = test system: Canis familiaris; test: Percent change in FRP from control at active dose 10 mg/kg administered intraperitoneally in anesthetized dogs; format: functional, Canis lupus familiaris; conditions: route intraperitoneal
[22] = test system: Canis familiaris; test: Percent change in heart rate (HR) from control at active dose 1.0-10 mg/kg administered intraperitoneally in anesthetized dogs; format: functional, Canis lupus familiaris
[23] = Ratio of number of active animals to number of treated at dose 1.0-10 mg/kg administered intraperitoneally in PES model in anesthetized dogs; 3/5; format: functional
[24] = test system: Canis familiaris; test: Percent change in heart rate (HR) from control at active dose 10 mg/kg administered intraduodenally; conditions: route intraduodenal
[25] = test system: Canis familiaris; test: Percent change in blood pressure (BP) from control at active dose 1.0-10 mg/kg administered intraperitoneally in anesthetized dogs; format: functional, Canis lupus familiaris
[26] = test system: Canis familiaris; test: Percent change in blood pressure (BP) from control at active dose 10 mg/kg administered intraperitoneally in anesthetized dogs; format: functional, Canis lupus familiaris; conditions: route intraperitoneal
[27] = molecular target: T1, Beta-2 adrenergic receptor; test: Beta2-receptor selectivity in canine lung tissue in anesthetized dogs; format: functional

Structure (SMILES): CS(=O)(=O)Nc1ccc(N2CCN(CC(O)COc3ccccc3)CC2)cc1 (centres undefined)
Change [1]: 14%
Change [2]: -17%
Ratio [3]: 1
IC50 [4]: 15.8 µM
Change [5]: -7%
C20 [6]: 2.7 µM
Max delta [7]: 52%

Structure (SMILES): Cc1ccccc1OCC(O)CNCc1ccc(-n2ccnc2)cc1 (centres undefined)
IC50 [8]: 1.2 µM
IC50 [4]: 0.78 µM
IC50 [9]: 0.8 µM
C20 [6]: 0.3 µM
Max delta [10]: 65%

Structure (SMILES): CS(=O)(=O)Nc1ccc(C(=O)NC2CCCCC2NCC(O)COc2ccccc2)cc1 (centres undefined)
Change [1]: 15%
Change [2]: 17%
Ratio [12]: 2
IC50 [4]: 192 µM
Change [5]: -19%
C20 [6]: 5.3 µM
Max delta [10]: 45%

Structure (SMILES): CS(=O)(=O)Nc1ccc(C(=O)NCCNCC(O)COc2cccc3ccccc23)cc1 (centres undefined)
Ratio [11]: 0
IC50 [4]: 0.15 µM
C20 [6]: 1.1 µM
Max delta [10]: 48%

Structure (SMILES): CS(=O)(=O)Nc1ccc(C(=O)N2CCN(CC(O)COc3cccc4ccccc34)CC2)cc1 (centres undefined)
Change [13]: -25%
No. effective [14]: 2
IC50 [4]: 30.9 µM
Change [15]: 5%
Change [16]: 19%
C20 [6]: 0.5 µM
Max delta [10]: 55%

Structure (SMILES): Cc1cccc(OCC(O)CN2CCN(c3ccc(NS(C)(=O)=O)cc3)CC2)c1 (centres undefined)
Change [20]: 13%
Change [21]: 17%
Change [22]: 18%
No. effective [23]: 3
IC50 [8]: 49.3 µM
Change [24]: -21%
Change [25]: -1%
C20 [6]: <1 µM
Change [26]: 13%
Max delta [10]: 55%

Now from value to compound, other results behind:

IC50 [4]: 43.8 µM
Structure (SMILES): COc1ccc(OCC(O)CNCCNC(=O)c2ccc(NS(C)(=O)=O)cc2)cc1 (centres undefined)
Ratio [11]: 0
C20 [6]: 0.6 µM
Max delta [10]: 86%

IC50 [4]: 109 µM
Structure (SMILES): COCCc1ccc(OCC(O)CN2CCN(c3ccc(NS(C)(=O)=O)cc3)CC2)cc1 (centres undefined)
Change [13]: -12%
Change [15]: 9%
Change [16]: 15%
C20 [6]: 3.2 µM
Max delta [10]: 76%
No. effective [17]: 3

IC50 [4]: 3.9 µM
Structure (SMILES): CS(=O)(=O)Nc1ccc(C(=O)NCCNCC(O)COc2ccccc2)cc1 (centres undefined)
Ratio [11]: 0
Max delta [18]: 26%
C20 [6]: 7.1 µM

IC50 [9]: 33.1 µM
Structure (SMILES): CS(=O)(=O)Nc1ccc(OCC(O)CNCc2ccc(-n3ccnc3)cc2)cc1 (centres undefined)
Max delta [18]: 67%
C20 [6]: 1.8 µM

IC50 [4]: 227 µM
Structure (SMILES): CS(=O)(=O)Nc1ccc(OCC(O)CNCCNC(=O)c2ccc(-n3ccnc3)cc2)cc1 (centres undefined)
Change [1]: 14%
Max delta [19]: 58%
Change [2]: 30%
Ratio [12]: 1
Change [5]: -18%
C20 [6]: 5.8 µM

IC50 [4]: 12.4 µM
Structure (SMILES): COCCc1ccc(OCC(O)CNCCNC(=O)c2ccc(-n3ccnc3)cc2)cc1 (centres undefined)
C20 [6]: <1.4 µM
Max delta [10]: 70%

IC50 [4]: 2.9 µM
Structure (SMILES): CS(=O)(=O)Nc1ccc(C(=O)NCCNCC(O)COc2ccccc2C#N)cc1 (centres undefined)
Max delta [18]: 31%
C20 [6]: 23.7 µM

IC50 [27]: 4.5 µM
Structure (SMILES): COCCc1ccc(OCC(O)CNCCOc2ccc(-n3ccnc3)cc2)cc1 (centres undefined)
Max delta [19]: 89%
C20 APD95 [6]: 14.8 µM
